# Values quoted from earlier work as cited in patent publication US20220003741A1, “ORAL WASH FOR ORAL FLUID COLLECTION AND ANALYSIS AND METHODS OF USE THEREOF” (priority 2018, published 2022).
# What was measured:
# [1] = versus aripiprazole and dehydro aripiprazole
# [2] = not given; remark: listed apart in the source
smiles,measurement,setting,value
O=C(O)CCCOc1ccc2c(c1)NC(=O)CC2 [OPC-3373],water solubility compared with parent compound aripiprazole and dehydro aripiprazole,[1],much more water soluble
CCCCCc1cc(O)c2c(c1)OC(C)(C)[C@@H]1CCC(C)=C[C@@H]21 [THC],fraction of THC excreted in the feces,feces,More than 55%
same,fraction of THC excreted in the urine,urine,approximately 20%
CN1CCCC1c1cccnc1 (centres unmarked) [nicotine],time to reach the brain after inhalation,"[2]; after inhalation, crosses the blood-brain barrier",10 to 20 s
same,elimination half-life of nicotine in the body,[2]; in vivo,around two
